For one data set, the target named is T1, CYP1A2 (Homo sapiens, UniProt P05177).
T1 sequence (P05177 1-516): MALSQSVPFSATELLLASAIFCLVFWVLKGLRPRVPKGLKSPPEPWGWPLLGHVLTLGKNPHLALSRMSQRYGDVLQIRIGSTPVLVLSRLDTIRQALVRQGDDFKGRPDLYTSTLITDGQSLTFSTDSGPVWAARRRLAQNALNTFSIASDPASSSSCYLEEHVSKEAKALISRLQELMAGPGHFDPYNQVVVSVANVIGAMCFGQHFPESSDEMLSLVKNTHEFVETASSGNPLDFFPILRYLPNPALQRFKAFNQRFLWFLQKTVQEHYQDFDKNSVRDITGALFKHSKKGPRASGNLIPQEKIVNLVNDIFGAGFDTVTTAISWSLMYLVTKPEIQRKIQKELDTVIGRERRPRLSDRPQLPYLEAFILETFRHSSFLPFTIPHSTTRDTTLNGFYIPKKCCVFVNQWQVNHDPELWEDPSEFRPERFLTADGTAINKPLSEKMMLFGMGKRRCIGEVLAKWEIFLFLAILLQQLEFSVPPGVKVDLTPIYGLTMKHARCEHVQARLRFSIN
In words: CYP inhibition in human liver microsomes, CYP1A2. As to conditions: HLM, marker substrate Phenacetin. The data set is classed as in vitro ADME. On the procedure:
(§1) . The inhibition of CYP2B6 and 3A4 (when midazolam was used as the substrate) by ZB716 was not observed. The inhibitory potential of ZB716 on human CYP enzyme activities appears relatively low.
(§2) The final concentrations of ZB716 in the incubation system were 0, 0.05, 0.15, 0.5, 1.5, 5, and 15 µM (final organic solvent concentration ≤ 1%). […] . […] The concentrations of the isoform-specific metabolites derived from marker substrates were measured by UPLC–MS/MS. The IC50 values were calculated from the percentages of the rate of the metabolite formation relative to non-inhibited controls vs. the concentrations of ZB716 or positive control inhibitors. All incubations were performed in triplicate. The mean of the enzyme activity (% of non-inhibited control) for each concentration was plotted against the log inhibitor concentration, and fitted to an IC50 curve.
A general note: Liver microsomes are vesicles of endoplasmic reticulum, rich in cytochrome P450 enzymes.

For a further data set, the target named is CYP3A5 (Homo sapiens, UniProt P20815). In words: CYP phenotyping, recombinant CYP3A5.
Chain of CYP3A5 (P20815 whole entry): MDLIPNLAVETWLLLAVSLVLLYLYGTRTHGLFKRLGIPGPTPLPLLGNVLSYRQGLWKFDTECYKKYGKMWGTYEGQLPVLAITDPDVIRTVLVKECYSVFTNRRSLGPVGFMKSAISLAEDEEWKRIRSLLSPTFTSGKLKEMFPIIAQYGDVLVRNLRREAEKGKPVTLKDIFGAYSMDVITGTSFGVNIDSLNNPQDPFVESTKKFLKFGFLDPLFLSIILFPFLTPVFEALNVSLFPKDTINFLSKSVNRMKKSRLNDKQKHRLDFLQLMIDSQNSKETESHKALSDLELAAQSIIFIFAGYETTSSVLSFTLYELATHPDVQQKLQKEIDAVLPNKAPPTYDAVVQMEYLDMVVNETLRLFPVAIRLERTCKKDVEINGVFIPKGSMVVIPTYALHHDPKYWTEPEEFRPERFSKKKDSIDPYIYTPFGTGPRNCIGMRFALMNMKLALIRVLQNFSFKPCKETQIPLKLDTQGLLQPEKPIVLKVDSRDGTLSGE
The nature of data set [1]: Plasma protein binding by equilibrium dialysis, monkey. The data set is classed as in vitro ADME. Conditions: plasma (EDTA-K2 as anticoagulant). As to the method:
(§3) The in vitro binding of ZB716 to plasma proteins was determined by equilibrium dialysis technique in mouse, rat, dog, monkey, and human plasma (EDTA-K2 as anticoagulant), over the concentration range of 0.1–10 μM. The free concentration of ZB716 was below the lower limit of quantitation at 0.1, 1, and 10 μM in human, monkey, dog, rat, and mouse plasma.
(§4) The equilibrium dialysis method was used to investigate the in vitro binding of ZB716 to human, monkey, dog, rat, and mouse plasma proteins. The dialysis phosphate buffer solution (100 mM, pH 7.4) and plasma samples containing 0.1, 1, and 10 μM of ZB716 were added to separate chambers of dialysis wells of the HTDialysis device. The dialysis plate was placed in an incubator at 37 °C with 5% CO2 at approximately 100 rpm for 6 h. After incubation, the seal was removed, and 50 μL each of post-dialysis samples was pipetted from both the buffer and plasma chambers into fresh 96-well plates. The samples were analyzed via UPLC–MS/MS. The bound fraction, unbound fraction, recovery (%), and remaining (%) were calculated by Equations (2)–(5):%Unbound = (Conc.buffer chamber/Conc.plasma chamber) × 100(2) %Bound = 100% − %Unbound (3) %Recovery = (Conc.buffer chamber + Conc.plasma chamber)/Conc.Total sample × 100 (4) %Remaining = Conc.6h/Conc.0h × 100 (5)
(In general: In equilibrium dialysis only unbound substance equilibrates across the membrane.)

The next data set relates to monkey plasma proteins. Described as above. The format is in vitro ADME. As to conditions: for Remaining: 6 h. On the procedure:
as §3, §4

Data set [2] in a line: Metabolic stability in dog hepatocytes. The data set is classed as in vitro ADME. On the procedure: (§5) Hepatocytes of humans (#X008001), dogs (#M00205), rats (#M00005), and mice (#M005052) were purchased from BioIVT, NY, USA. Monkey hepatocytes were procured from RILD, Shanghai, China. The metabolic stability of ZB716 in human, monkey, dog, rat and mouse hepatocytes was investigated by incubating ZB716 with human, monkey, dog, rat, and mouse hepatocytes (0.5 × 10^6 cells/mL), or with incubation medium only.
(§6) parent disappearance vs. incubation time curve.
(§7) Scaled-up Clint = kV/N × Scaling Factor
(§8) metabolite formed during the reaction.

The next data set relates to dog hepatocytes. In words: Metabolic stability in dog hepatocytes. The data set is classed as in vitro ADME. Conditions: 1 μM. On the procedure:
as §5, §6, §7, §8

The target of a further data set is CYP2A6 (Homo sapiens, UniProt P11509). In words: CYP phenotyping, recombinant CYP2A6.
Chain of CYP2A6 (P11509 whole entry): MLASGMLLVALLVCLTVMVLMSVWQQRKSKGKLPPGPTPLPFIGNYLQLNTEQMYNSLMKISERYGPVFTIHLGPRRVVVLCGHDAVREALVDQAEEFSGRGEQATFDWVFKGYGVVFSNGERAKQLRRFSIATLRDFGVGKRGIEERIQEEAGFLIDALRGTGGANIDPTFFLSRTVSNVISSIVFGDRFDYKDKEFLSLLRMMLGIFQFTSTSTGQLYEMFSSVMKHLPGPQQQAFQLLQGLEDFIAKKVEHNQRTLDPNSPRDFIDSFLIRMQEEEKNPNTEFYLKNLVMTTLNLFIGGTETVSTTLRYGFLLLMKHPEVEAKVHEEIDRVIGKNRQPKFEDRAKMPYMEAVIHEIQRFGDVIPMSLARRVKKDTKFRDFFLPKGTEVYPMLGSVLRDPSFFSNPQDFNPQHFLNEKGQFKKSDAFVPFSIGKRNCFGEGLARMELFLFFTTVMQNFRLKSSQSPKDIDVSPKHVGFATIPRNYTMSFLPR
The target in a further data set is CYP2C9 (Homo sapiens, UniProt P11712). Description: CYP inhibition in human liver microsomes, CYP2C9. The format is in vitro ADME. As to conditions: HLM, marker substrate Diclofenac. As to the method: as §1, §2
Chain of CYP2C9 (P11712 whole entry): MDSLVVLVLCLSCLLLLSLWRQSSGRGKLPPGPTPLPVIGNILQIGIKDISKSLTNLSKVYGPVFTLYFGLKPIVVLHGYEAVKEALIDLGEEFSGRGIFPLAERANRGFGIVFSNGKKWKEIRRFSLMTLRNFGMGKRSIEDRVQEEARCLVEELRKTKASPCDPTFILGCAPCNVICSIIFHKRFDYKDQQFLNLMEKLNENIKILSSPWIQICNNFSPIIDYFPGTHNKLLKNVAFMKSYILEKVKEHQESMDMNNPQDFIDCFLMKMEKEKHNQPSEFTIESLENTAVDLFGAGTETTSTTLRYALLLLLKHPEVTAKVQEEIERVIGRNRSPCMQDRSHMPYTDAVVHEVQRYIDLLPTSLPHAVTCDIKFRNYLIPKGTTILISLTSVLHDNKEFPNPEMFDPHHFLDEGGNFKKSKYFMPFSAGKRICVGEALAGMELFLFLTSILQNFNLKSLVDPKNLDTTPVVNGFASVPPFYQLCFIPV

Where “and” joins values, the source holds several entries; their conditions need not be identical. Equal values may be shown once. Some results are limits rather than exact numbers.

The term IC50 denotes the concentration at which inhibition is half-maximal. Usually CLint scaled stands for the capacity of the preparation to metabolise the compound, expressed as a volume cleared per time.

Procedure for CYP2A6: (§9) Bactosomes prepared from E. coli that heterologously expressed individual human CYP isoforms together with human CYP reductase were obtained from CYPEX LTD (Scotland, UK), and stored at −80 °C prior to use. […] Timepoints were taken at 0, 5, 10, 15, 20, and 30 min. Substrate disappearance was used to calculate intrinsic clearance (Clint) and half-life (t1/2). All incubations were performed in triplicate. […] The chemical inhibitors for CYP1A2, 2A6, 2B6, 2C8, 2C9, 2C19, 2D6, and 3A4 were furafylline, tranylcypromine, ticlopidine, montelukast, sulfaphenazole, N-3-benzylnirvanol, quinidine, and ketoconazole, respectively. Timepoints were collected at 0, 15, 30, 45, and 60 min, and the remaining percentage of the parent drug at each timepoint was calculated (the calculation details are available in the Supplementary Materials). All incubations were performed in triplicate.
1.3.1 Intrinsic Clearance (Heterologously Expressed Human Cytochrome P450) All calculations were carried out using Microsoft Excel. The slope, k, was determined by linear regression of the natural logarithm of percent parent disappearance vs. incubation time curve. Peak areas for test article and internal standard were determined from extracted ion chromatograms. The peak area ratio was used to calculated for the results.
The half-life value (t1/2 rCYPi) was determined from the slope value: […]
Procedure for CYP3A5: as §9
The slope, k, was determined by linear regression of the natural logarithm of percent parent disappearance vs. incubation time curve. Peak areas for test article and internal standard were determined from extracted ion chromatograms. The peak area ratio was used to calculated for the results.
The half-life value (t1/2 rCYPi) was determined from the slope value:
Conversion of the t1/2 rCYPi (in min) into the intrinsic clearance (Clint rCYPi in μL/min/pmol) was done using the following equation:
1.3.2 For inhibition ratio (%) (Liver microsomes with and without inhibitors) The slope value, k, was determined by linear regression of the natural logarithm of the remaining percentage of the parent drug vs. incubation time curve. If the turnover was not significant (T-test with p<0.05 was not obtained) and the percentage remaining at last time point was ≥ 80%, the k value was

`C[C@]12CC[C@@H]3c4ccc(B(O)O)cc4C[C@@H](CCCCCCCCC[S+]([O-])CCCC(F)(F)C(F)(F)F)[C@H]3[C@@H]1CC[C@@H]2O` (stereo partly shown) [ZB716, fulvestrant-3-boronic acid]: the IC50 against CYP1A2 was more than 15 µM; on CYP2C9 it was 4.77 µM. Also, the figures for the half-life at 2 µM on CYP3A5 (human) and on CYP2A6 (human) were 2.06 ± 0.33 min and 16.6 ± 0.6 min, respectively. Besides, the Clint on CYP3A5 (recombinant CYP3A5, 2 µM ZB716) was 6.86 µL/min/pmol CYP and 6.86 ± 1.12 µL/min/pmol CYP; at CYP2A6 (recombinant CYP2A6, 2 µM ZB716) it was 0.836 ± 0.028 µL/min/pmol CYP. Further, the recovery at 6 h, 0.1 μM in data set [1] (pH 7.4, 0.1 μM) is less than 68.2%. Further, in data set [1] (pH 7.4, 1 μM), the recovery at 6 h, 1 μM is less than 70%. The recovery at 6 h, 10 μM in data set [1] (pH 7.4, 10 μM) was less than 87.2%. Further, the Bound is reported as more than 96.4% in the data set with monkey plasma proteins (0.1 μM), more than 99.6% in the data set with monkey plasma proteins (1 μM) and more than 99.97% in the data set on monkey plasma proteins (10 μM). The Unbound in the data set with monkey plasma proteins (0.1 μM) is listed as less than 3.63%; with monkey plasma proteins (1 μM), less than 0.326%; with monkey plasma proteins (10 μM), less than 0.0308%. Besides, the Remaining came out at 65.3 ± 2.8% with monkey plasma proteins (0.1 μM), 70.9 ± 4.8% with monkey plasma proteins (1 μM) and 93.9 ± 10.0% with monkey plasma proteins (10 μM). For the same compound, in data set [2] (read-out: Estimated In Vitro t1/2), the half-life at 1 μM is 26.7 ± 0.4 min. In data set [2] (read-out: In Vitro Clint), the hepatocyte CLint at 1 μM is 51.9 ± 0.7 µL/min/1e6 cells. For the same compound, the CLint scaled at 1 μM in data set [2] (read-out: Scaled-Up Clint) stood at 357 ± 5 mL/min/kg. In the data set on dog hepatocytes, the “Remaining at 120 min” value came out at 6.99 ± 0.46%.

The record behind these values is PMC8400955 (Pharmaceuticals, 2021).
